Values of other authors, collected in EP4437048B1, “ENERGY CURABLE INK, COATING AND PRIMER COMPOSITIONS CONTAINING HIGHLY ALKOXYLATED GLYCEROL ACRYLATES FOR RETORT PACKAGING APPLICATIONS” (Sun Chemical B.V., priority 2022, dated 2024).

Details: specific migration limit of the acrylate (Table 7)

For `C=CC(=O)OCC(CC)(COCC(CC)(COC(=O)C=C)COC(=O)C=C)COC(=O)C=C` [Di-TMPTA], the SML is listed as 10 ppb.
